Experimental findings from US11739098B2 (BRISTOL-MYERS SQUIBB COMPANY, priority 2017, dated 2023) are described below.

Structures are written as SMILES. Where only a bound is given, the exact number is not on record here.

What all share (format): cell-based
For experiment [1], the target named is T1, human TLR7 (Homo sapiens, UniProt Q9NYK1).
T1 construct: host or cells: HEK-Blue cells (HEK293-derived reporter line)
T1 sequence (Q9NYK1 27-1049): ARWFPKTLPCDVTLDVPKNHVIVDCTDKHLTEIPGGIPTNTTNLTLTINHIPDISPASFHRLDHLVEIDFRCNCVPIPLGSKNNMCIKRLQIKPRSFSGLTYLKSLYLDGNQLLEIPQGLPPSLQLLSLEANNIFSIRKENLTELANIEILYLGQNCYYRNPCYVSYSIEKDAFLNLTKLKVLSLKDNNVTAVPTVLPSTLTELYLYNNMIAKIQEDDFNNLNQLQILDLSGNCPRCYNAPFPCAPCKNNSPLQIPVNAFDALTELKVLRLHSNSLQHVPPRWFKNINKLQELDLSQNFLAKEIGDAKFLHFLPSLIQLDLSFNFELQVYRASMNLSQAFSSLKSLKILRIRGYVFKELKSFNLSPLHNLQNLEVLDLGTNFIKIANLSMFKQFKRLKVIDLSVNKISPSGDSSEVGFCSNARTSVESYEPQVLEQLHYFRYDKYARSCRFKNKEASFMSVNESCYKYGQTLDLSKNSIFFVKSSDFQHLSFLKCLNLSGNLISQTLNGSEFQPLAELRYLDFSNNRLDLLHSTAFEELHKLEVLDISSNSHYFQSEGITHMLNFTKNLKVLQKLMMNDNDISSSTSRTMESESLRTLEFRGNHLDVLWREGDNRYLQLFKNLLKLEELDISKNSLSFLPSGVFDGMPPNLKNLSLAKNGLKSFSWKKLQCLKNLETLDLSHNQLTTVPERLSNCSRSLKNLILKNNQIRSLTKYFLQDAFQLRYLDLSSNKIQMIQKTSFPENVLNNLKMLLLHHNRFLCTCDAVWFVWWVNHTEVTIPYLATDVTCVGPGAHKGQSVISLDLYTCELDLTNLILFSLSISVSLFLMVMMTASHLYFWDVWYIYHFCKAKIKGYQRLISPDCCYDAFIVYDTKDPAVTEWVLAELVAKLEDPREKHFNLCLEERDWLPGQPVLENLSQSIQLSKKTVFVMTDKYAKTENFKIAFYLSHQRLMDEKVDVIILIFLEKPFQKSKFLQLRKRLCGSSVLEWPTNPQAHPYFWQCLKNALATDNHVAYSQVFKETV
In words: TLR7 inhibition reporter assay (HEK-Blue cells, SEAP reporter, gardiquimod stimulation). The note with it: HEK-Blue cells overexpressing human TLR7, SEAP reporter, gardiquimod 7.5 μM. In short, it runs like this: (§1)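 Read-out is SEAP activity in HEK-Blue detection medium after 22 h at 37 °C, converted to percent inhibition against agonist-plus-DMSO and reference-inhibitor controls. Cells saw compound (0.05 nM–50 μM, 30 min, room temperature) before gardiquimod 7.5 μM, R848 15.9 μM or ODN2006 5 nM for TLR7, TLR8 and TLR9, respectively.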

Experiment [2] has as its target T2, human TLR8 (Homo sapiens, UniProt Q9NR97).
T2 construct: host or cells: HEK-Blue cells (HEK293-derived reporter line)
T2 sequence (Q9NR97 27-1041): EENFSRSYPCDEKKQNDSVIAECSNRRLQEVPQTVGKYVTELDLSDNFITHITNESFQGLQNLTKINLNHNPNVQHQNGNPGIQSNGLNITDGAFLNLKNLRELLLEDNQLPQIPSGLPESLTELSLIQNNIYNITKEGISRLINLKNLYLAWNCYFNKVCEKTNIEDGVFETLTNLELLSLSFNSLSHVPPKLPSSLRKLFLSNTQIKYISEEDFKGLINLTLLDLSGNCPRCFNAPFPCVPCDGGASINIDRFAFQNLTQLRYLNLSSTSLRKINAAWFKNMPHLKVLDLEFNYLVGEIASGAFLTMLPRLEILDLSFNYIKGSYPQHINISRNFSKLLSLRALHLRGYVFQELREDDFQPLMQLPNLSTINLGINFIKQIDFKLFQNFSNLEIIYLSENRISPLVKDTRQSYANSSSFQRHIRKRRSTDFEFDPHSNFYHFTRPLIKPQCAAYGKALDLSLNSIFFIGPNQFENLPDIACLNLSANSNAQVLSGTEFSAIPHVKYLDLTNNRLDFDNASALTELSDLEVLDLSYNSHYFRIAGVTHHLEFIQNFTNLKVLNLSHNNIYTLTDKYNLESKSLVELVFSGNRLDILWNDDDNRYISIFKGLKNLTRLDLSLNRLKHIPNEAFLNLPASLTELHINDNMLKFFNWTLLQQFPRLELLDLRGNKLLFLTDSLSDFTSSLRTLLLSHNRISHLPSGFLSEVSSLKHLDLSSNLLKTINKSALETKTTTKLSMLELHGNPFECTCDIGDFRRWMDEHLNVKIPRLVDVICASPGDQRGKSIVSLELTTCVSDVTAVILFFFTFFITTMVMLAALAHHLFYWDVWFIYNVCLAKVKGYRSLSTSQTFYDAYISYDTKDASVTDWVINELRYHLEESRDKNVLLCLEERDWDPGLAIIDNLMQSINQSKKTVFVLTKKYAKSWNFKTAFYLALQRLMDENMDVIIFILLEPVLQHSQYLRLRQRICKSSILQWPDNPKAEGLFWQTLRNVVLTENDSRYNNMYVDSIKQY
In words: TLR8 inhibition reporter assay (HEK-Blue cells, SEAP reporter, R848 stimulation). The note with it: HEK-Blue cells overexpressing human TLR8, SEAP reporter, R848 15.9 μM. Summed up: as §1
Background: Reporter assays use an easily measured gene product as a stand-in for the process of interest.

The target in experiment [3] is T3, human TLR9 (Homo sapiens, UniProt Q9NR96).
T3 construct: host or cells: HEK-Blue cells (HEK293-derived reporter line)
T3 sequence (Q9NR96 26-1032): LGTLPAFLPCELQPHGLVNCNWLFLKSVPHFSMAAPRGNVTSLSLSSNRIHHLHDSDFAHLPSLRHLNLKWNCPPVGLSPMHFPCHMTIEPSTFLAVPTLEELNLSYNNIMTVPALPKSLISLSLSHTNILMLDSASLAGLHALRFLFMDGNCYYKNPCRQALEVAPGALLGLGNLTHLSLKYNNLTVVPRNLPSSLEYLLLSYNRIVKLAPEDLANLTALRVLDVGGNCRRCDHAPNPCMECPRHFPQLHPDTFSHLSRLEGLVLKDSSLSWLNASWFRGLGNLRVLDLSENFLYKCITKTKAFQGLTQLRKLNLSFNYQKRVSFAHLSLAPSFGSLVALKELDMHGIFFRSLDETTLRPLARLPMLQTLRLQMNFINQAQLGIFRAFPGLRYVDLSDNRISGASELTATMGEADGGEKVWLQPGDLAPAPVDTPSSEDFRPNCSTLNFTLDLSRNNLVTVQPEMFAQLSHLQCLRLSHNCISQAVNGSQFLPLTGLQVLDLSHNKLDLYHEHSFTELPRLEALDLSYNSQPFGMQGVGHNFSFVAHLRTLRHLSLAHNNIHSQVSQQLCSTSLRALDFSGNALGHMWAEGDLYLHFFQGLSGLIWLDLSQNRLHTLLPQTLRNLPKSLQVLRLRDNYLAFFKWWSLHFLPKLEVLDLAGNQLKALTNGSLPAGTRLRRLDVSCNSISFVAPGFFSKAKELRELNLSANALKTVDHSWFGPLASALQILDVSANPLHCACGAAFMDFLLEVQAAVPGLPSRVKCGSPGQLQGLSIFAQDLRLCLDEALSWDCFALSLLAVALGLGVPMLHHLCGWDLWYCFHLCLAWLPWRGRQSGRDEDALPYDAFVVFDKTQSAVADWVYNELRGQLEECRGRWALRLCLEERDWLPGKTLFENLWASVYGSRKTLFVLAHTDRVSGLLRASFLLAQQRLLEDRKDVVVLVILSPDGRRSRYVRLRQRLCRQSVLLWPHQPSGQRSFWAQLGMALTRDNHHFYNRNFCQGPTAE
The experiment is described as follows: TLR9 inhibition reporter assay (HEK-Blue cells, SEAP reporter, ODN2006 stimulation). The following applies: HEK-Blue cells overexpressing human TLR9, SEAP reporter, ODN2006 5 nM. Summed up:
as §1

One may read the IC50 as the midpoint of a concentration-inhibition curve. With `CC(C)c1c(-c2ccnc3[nH]ncc23)[nH]c2ccc(C3CCN(C(=O)Cn4ccnc4)CC3)cc12` [Example 565, 2-(1H-imidazol-1-yl)-1-(4-(3-isopropyl-2-(1H-pyrazolo[3,4-b]pyridin-4-yl)-1H-indol-5-yl)piperidin-1-yl)ethan-1-one], the IC50 is below 100 nM in experiment [1], below 100 nM in experiment [2] and 1000 to 50000 nM in experiment [3].

Turning to `CC(=O)N1CCC[C@H]1C(=O)N1CCC(c2ccc3[nH]c(-c4ccnc5[nH]ncc45)c(C(C)C)c3c2)CC1` [Example 566, (S)-1-(2-(4-(3-isopropyl-2-(1H-pyrazolo[3,4-b]pyridin-4-yl)-1H-indol-5-yl)piperidine-1-carbonyl)pyrrolidin-1-yl)ethan-1-one], the IC50 in experiment [1] was 100 to 1000 nM; in experiment [2], 100 to 1000 nM; in experiment [3], above 50000 nM.

As to `CC(=O)NCC(=O)N1CCC(c2ccc3[nH]c(-c4ccnc5[nH]ncc45)c(C(C)C)c3c2)CC1` [Example 567, N-(2-(4-(3-isopropyl-2-(1H-pyrazolo[3,4-b]pyridin-4-yl)-1H-indol-5-yl)piperidin-1-yl)-2-oxoethyl)acetamide], the IC50 was below 100 nM in experiment [1], 100 to 1000 nM in experiment [2] and above 50000 nM in experiment [3].

For `CCN(CC)C(=O)C1CCCN(CC(=O)N2CCC(c3ccc4[nH]c(-c5ccnc6[nH]ccc56)c(C(C)C)c4c3)CC2)C1` (stereo not drawn) [Example 568, N,N-diethyl-1-(2-(4-(3-isopropyl-2-(1H-pyrrolo[2,3-b]pyridin-4-yl)-1H-indol-5-yl)piperidin-1-yl)-2-oxoethyl) piperidine-3-carboxamide], the IC50 in experiment [1] was below 100 nM; in experiment [2], below 100 nM; in experiment [3] it was 1000 to 50000 nM.

On to `CCN(CC)C(=O)C1CCCN(CC(=O)N2CCC(c3ccc4[nH]c(-c5ccnc6[nH]ccc56)c(C(C)C)c4c3)CC2)C1` (stereo not drawn) [Example 569, N,N-diethyl-1-(2-(4-(3-isopropyl-2-(1H-pyrrolo[2,3-b]pyridin-4-yl)-1H-indol-5-yl)piperidin-1-yl)-2-oxoethyl)piperidine-3-carboxamide], for which the values for the IC50 in experiment [1], in experiment [2] and in experiment [3] were below 100 nM, below 100 nM and 100 to 1000 nM, respectively.

For the compound `Cc1cc(-c2[nH]c3ccc(C4CCN(C(=O)CN(C)C)CC4)cc3c2C(C)C)cc2ccnn12` [Example 570, 2-(dimethylamino)-1-(4-(3-isopropyl-2-(7-methylpyrazolo[1,5-a]pyridin-5-yl)-1H-indol-5-yl)piperidin-1-yl)ethan-1-one], the IC50 in experiment [1] was below 100 nM; in experiment [2], below 100 nM; in experiment [3], 1000 to 50000 nM.

Take `CN(C)CC(=O)N1CCC(c2ccc3[nH]c(-c4ccn5ccnc5c4)c(CC(F)F)c3c2)CC1` [Example 571, 1-(4-(3-(2,2-difluoroethyl)-2-(imidazo[1,2-a]pyridin-7-yl)-1H-indol-5-yl)piperidin-1-yl)-2-(dimethylamino)ethan-1-one]: the IC50 in experiment [1] is below 100 nM; in experiment [2], 100 to 1000 nM; in experiment [3], below 100 nM.

In the case of `CC(C)c1c(-c2ccc3nccn3c2)[nH]c2ccc(C3CCN(C(=O)CN(C)C)CC3)cc12` [Example 572, 2-(dimethylamino)-1-(4-(2-(imidazo[1,2-a]pyridin-6-yl)-3-isopropyl-1H-indol-5-yl)piperidin-1-yl)ethan-1-one], the results for the IC50 in experiment [1], in experiment [2] and in experiment [3] were below 100 nM, 100 to 1000 nM and 1000 to 50000 nM, respectively.

In the case of `CC(=O)NCCNCC(=O)N1CCC(c2ccc3[nH]c(-c4ccnc5[nH]ncc45)c(C(C)C)c3c2)CC1` [Example 573, N-(2-((2-(4-(3-isopropyl-2-(1H-pyrazolo[3,4-b]pyridin-4-yl)-1H-indol-5-yl)piperidin-1-yl)-2-oxoethyl)amino)ethyl)acetamide], the IC50 in experiment [1] is below 100 nM; in experiment [2], below 100 nM; in experiment [3] it was 1000 to 50000 nM.

On to `CC(=O)N1CCN(CC(=O)N2CCC(c3ccc4[nH]c(-c5ccnc6[nH]ncc56)c(C(C)C)c4c3)CC2)CC1` [Example 574, 2-(4-acetylpiperazin-1-yl)-1-(4-(3-isopropyl-2-(1H-pyrazolo[3,4-b]pyridin-4-yl)-1H-indol-5-yl)piperidin-1-yl)ethan-1-one], for which the results for the IC50 in experiment [1], in experiment [2] and in experiment [3] were below 100 nM, below 100 nM and above 50000 nM, respectively.

On to `CC(C)c1c(-c2ccnc3[nH]ncc23)[nH]c2ccc(C3CCN(C(=O)CNCCCN(C)C)CC3)cc12` [Example 575, 2-((3-(dimethylamino)propyl)amino)-1-(4-(3-isopropyl-2-(1H-pyrazolo[3,4-b]pyridin-4-yl)-1H-indol-5-yl)piperidin-1-yl)ethan-1-one], for which the IC50 was below 100 nM in experiment [1], below 100 nM in experiment [2] and 100 to 1000 nM in experiment [3].
